Data: paper PMC8571282 (Nature Communications, 2021)
“And” between values parts separate entries of the source, which are not always exact repeats. Equal values may be shown once. Read-outs that look alike come from different tables or passages of the source.

What was measured:
[1] = assay type: in vivo, ferret (Mustela putorius furo); set-up: Temperature, Mean Diff. (Vehicle - treated): unit not given here; settings: for Bodyweight, Mean 2 (treated group) / Bodyweight, Mean Diff. (Vehicle vs. treated): Fig 3e; for Bodyweight, Mean 2 (treated group) / Bodyweight, Mean Diff. (Vehicle vs. treated) / Temperature, Mean 2 (treated group) / Temperature, Mean Diff. (Vehicle vs. treated): 5 mg/kg, b.i.d.; for Temperature, Mean 2 (treated group) / Temperature, Mean Diff. (Vehicle vs. treated): Fig 3d; for Bodyweight, Mean 2 (treated group mean) / Bodyweight, Mean Diff. (Vehicle - treated): Fig 2e; for Bodyweight, Mean 2 (treated group mean) / Bodyweight, Mean Diff. (Vehicle - treated) / Temperature, Mean 2 (treated group mean) / Temperature, Mean Diff. (Vehicle - treated): 20 mg kg-1 b.i.d.; for Bodyweight, Mean 2 (treated group mean) / Temperature, Mean 2 (treated group mean): N 4; for Bodyweight, Mean Diff. (Vehicle - treated) / Temperature, Mean Diff. (Vehicle - treated): Šídák's multiple comparisons test; for Temperature, Mean 2 (treated group mean) / Temperature, Mean Diff. (Vehicle - treated): Fig 2d
[2] = test system: SARS-CoV-2 WA1/2020; assay type: in vivo, ferret (Mustela putorius furo); settings: for Transform of Nasal lavage titer, Mean 2 (treated group) / Transform of Nasal lavage titer, Mean Diff. (Vehicle vs. treated): Fig 3b; for Transform of Nasal Lavage RNA copies, Mean 2 (treated group) / Transform of Nasal Lavage RNA copies, Mean Diff. (Vehicle vs. treated): Fig 3f, 5mg/kg b.i.d.
[3] = test system: SARS-CoV-2 WA1/2020; assay type: in vivo, ferret (Mustela putorius furo); settings: Fig 2g, 20 mg kg-1 b.i.d.; for Transform of Nasal lavage RNA copies/uL, Mean 2 (treated group mean): N 4; for Transform of Nasal lavage RNA copies/uL, Mean Diff. (Vehicle - treated): Šídák's multiple comparisons test
[4] = Single-dose plasma pharmacokinetics in ferrets; settings: ferret plasma, analyte 441524 after IV '524, 20 mg/kg, 20 mg/kg; for AUC(0-t) / clearance / Cmax: plasma, iv; for AUC(0-t): AUClast; for clearance: Cl_obs

Q: Which results are given for `CC(C)C(=O)OC[C@H]1O[C@@H](n2ccc(NO)nc2=O)[C@H](O)[C@@H]1O` [EIDD-2801/molnupiravir, reference compound]?
A: Bodyweight, Mean 2 (treated group) ([1]; Row 1 (time)): 100; Bodyweight, Mean Diff. (Vehicle vs. treated) ([1]; Row 1 (time)): 0; Bodyweight, Mean 2 (treated group) ([1]; Row 2 (time)): 104; Bodyweight, Mean Diff. (Vehicle vs. treated) ([1]; Row 2 (time)): -3.257; Bodyweight, Mean 2 (treated group) ([1]; Row 3 (time)): 103.5; Bodyweight, Mean Diff. (Vehicle vs. treated) ([1]; Row 3 (time)): -2.179; Bodyweight, Mean 2 (treated group) ([1]; Row 4 (time)): 103.9; Bodyweight, Mean Diff. (Vehicle vs. treated) ([1]; Row 4 (time)): -1.728; Bodyweight, Mean 2 (treated group) ([1]; Row 5 (time)): 105.6; Bodyweight, Mean Diff. (Vehicle vs. treated) ([1]; Row 5 (time)): -3.149; Temperature, Mean 2 (treated group) ([1]; Row 1 (time)): 38.55; Temperature, Mean Diff. (Vehicle vs. treated) ([1]; Row 1 (time)): 0.6; Temperature, Mean 2 (treated group) ([1]; Row 2 (time)): 38.7; Temperature, Mean Diff. (Vehicle vs. treated) ([1]; Row 2 (time)): -0.025; Temperature, Mean 2 (treated group) ([1]; Row 3 (time)): 38.58; Temperature, Mean Diff. (Vehicle vs. treated) ([1]; Row 3 (time)): 0.1; Temperature, Mean 2 (treated group) ([1]; Row 4 (time)): 38.6; Temperature, Mean Diff. (Vehicle vs. treated) ([1]; Row 4 (time)): 0.05; Temperature, Mean 2 (treated group) ([1]; Row 5 (time)): 38.53; Temperature, Mean Diff. (Vehicle vs. treated) ([1]; Row 5 (time)): 0.05; Body temperature (Fig 3D) ([1]; in vivo): 39.3 and 38.7 and 38.2 and 38.6 and 38.9 and 38.4 and 37.8; Transform of Nasal lavage titer, Mean 2 (treated group) ([2]; Day 0, 5 mg/kg, b.i.d.): 0.699; Transform of Nasal lavage titer, Mean Diff. (Vehicle vs. treated) ([2]; Day 0, 5 mg/kg, b.i.d.): 0; Transform of Nasal lavage titer, Mean 2 (treated group) ([2]; Day 0.5, 5 mg/kg, b.i.d.): 2.389; Transform of Nasal lavage titer, Mean Diff. (Vehicle vs. treated) ([2]; Day 0.5, 5 mg/kg, b.i.d.): 0.206; Transform of Nasal lavage titer, Mean 2 (treated group) ([2]; Day 1, 5 mg/kg, b.i.d.): 2.25; Transform of Nasal lavage titer, Mean Diff. (Vehicle vs. treated) ([2]; Day 1, 5 mg/kg, b.i.d.): 1.457; Transform of Nasal lavage titer, Mean 2 (treated group) ([2]; Day 1.5, 5 mg/kg, b.i.d.): 2.025; Transform of Nasal lavage titer, Mean Diff. (Vehicle vs. treated) ([2]; Day 1.5, 5 mg/kg, b.i.d.): 2.631; Transform of Nasal lavage titer, Mean 2 (treated group) ([2]; Day 2, 5 mg/kg, b.i.d.): 1.683; Transform of Nasal lavage titer, Mean Diff. (Vehicle vs. treated) ([2]; Day 2, 5 mg/kg, b.i.d.): 2.587; Transform of Nasal lavage titer, Mean 2 (treated group) ([2]; Day 2.5, 5 mg/kg, b.i.d.): 2.004; Transform of Nasal lavage titer, Mean Diff. (Vehicle vs. treated) ([2]; Day 2.5, 5 mg/kg, b.i.d.): 2.196; Transform of Nasal lavage titer, Mean 2 (treated group) ([2]; Day 3, 5 mg/kg, b.i.d.): 1.551; Transform of Nasal lavage titer, Mean Diff. (Vehicle vs. treated) ([2]; Day 3, 5 mg/kg, b.i.d.): 2.25; Transform of Nasal lavage titer, Mean 2 (treated group) ([2]; Day 3.5, 5 mg/kg, b.i.d.): 1.802; Transform of Nasal lavage titer, Mean Diff. (Vehicle vs. treated) ([2]; Day 3.5, 5 mg/kg, b.i.d.): 2.074; Transform of Nasal lavage titer, Mean 2 (treated group) ([2]; Day 4, 5 mg/kg, b.i.d.): 1.119; Transform of Nasal lavage titer, Mean Diff. (Vehicle vs. treated) ([2]; Day 4, 5 mg/kg, b.i.d.): 2.869; Transform of Nasal Turbinate titer, Mean 2 (treated group) ([2]; Fig 3c, 5 mg/kg, b.i.d.): 2.801; Transform of Nasal Turbinate titer, Mean Diff. (Vehicle vs. treated) ([2]; Fig 3c, 5 mg/kg, b.i.d.): 3.122; Transform of Nasal Lavage RNA copies, Mean 2 (treated group) ([2]; Row 1 (time)): 0; Transform of Nasal Lavage RNA copies, Mean Diff. (Vehicle vs. treated) ([2]; Row 1 (time)): 0; Transform of Nasal Lavage RNA copies, Mean 2 (treated group) ([2]; Row 2 (time)): 4.936; Transform of Nasal Lavage RNA copies, Mean Diff. (Vehicle vs. treated) ([2]; Row 2 (time)): 0.6755; Transform of Nasal Lavage RNA copies, Mean 2 (treated group) ([2]; Row 3 (time)): 4.762; Transform of Nasal Lavage RNA copies, Mean Diff. (Vehicle vs. treated) ([2]; Row 3 (time)): 1.379; Transform of Nasal Lavage RNA copies, Mean 2 (treated group) ([2]; Row 4 (time)): 4.913; Transform of Nasal Lavage RNA copies, Mean Diff. (Vehicle vs. treated) ([2]; Row 4 (time)): 0.7124; Transform of Nasal Lavage RNA copies, Mean 2 (treated group) ([2]; Row 5 (time)): 4.419; Transform of Nasal Lavage RNA copies, Mean Diff. (Vehicle vs. treated) ([2]; Row 5 (time)): 1.314; viral RNA copies in nasal lavages and turbinates vs vehicle ([2]; in vivo): statistically significant mean reduction; virus burden in the turbinates ([2]; in vivo): approached the limit of detection; virus shedding in nasal lavages ([2]; in vivo): near-detection level

Q: For `CC(C)C(=O)OCC1OC(C#N)(c2ccc3c(N)ncnn23)C(OC(=O)C(C)C)C1OC(=O)C(C)C` (stereo not shown) [GS-62-1763], which “Transform of Nasal lavage RNA copies/uL, Mean 2 (treated group mean)” value (from here on “Transform … (treated group mean)”) ([3]; Row 1 (time)) is on record?
A: 0

Q: And the “Transform of Nasal lavage RNA copies/uL, Mean Diff. (Vehicle - treated)” value (shortened to “Transform … (Vehicle - treated)”) ([3]; Row 1 (time))?
A: 0

Q: And the “Transform … (treated group mean)” value ([3]; Row 2 (time))?
A: 3.525

Q: And the “Transform … (Vehicle - treated)” value ([3]; Row 2 (time))?
A: 1.479

Q: And the “Transform … (treated group mean)” value ([3]; Row 3 (time))?
A: 3.436

Q: And the “Transform … (Vehicle - treated)” value ([3]; Row 3 (time))?
A: 2.713

Q: What about the “Transform … (treated group mean)” value ([3]; Row 4 (time)) of the same compound?
A: 3.353

Q: And the “Transform … (Vehicle - treated)” value ([3]; Row 4 (time))?
A: 2.648

Q: And the “Transform … (treated group mean)” value ([3]; Row 5 (time))?
A: 3.502

Q: And the “Transform … (Vehicle - treated)” value ([3]; Row 5 (time))?
A: 2.475

Q: What about the “Bodyweight, Mean 2 (treated group mean)” value ([1]; Row 1 (time)) of the same compound?
A: 100

Q: What about the “Bodyweight, Mean Diff. (Vehicle - treated)” value ([1]; Row 1 (time)) of the same compound?
A: 0

Q: And the “Bodyweight, Mean 2 (treated group mean)” value ([1]; Row 2 (time))?
A: 102.1

Q: What about the “Bodyweight, Mean Diff. (Vehicle - treated)” value ([1]; Row 2 (time)) of the same compound?
A: -0.8462

Q: And the “Bodyweight, Mean 2 (treated group mean)” value ([1]; Row 3 (time))?
A: 104.7

Q: And the “Bodyweight, Mean Diff. (Vehicle - treated)” value ([1]; Row 3 (time))?
A: -2.64

Q: And the “Bodyweight, Mean 2 (treated group mean)” value ([1]; Row 4 (time))?
A: 105.7

Q: And the “Bodyweight, Mean Diff. (Vehicle - treated)” value ([1]; Row 4 (time))?
A: -3.357

Q: And the “Bodyweight, Mean 2 (treated group mean)” value ([1]; Row 5 (time))?
A: 105.5

Q: What about the “Bodyweight, Mean Diff. (Vehicle - treated)” value ([1]; Row 5 (time)) of the same compound?
A: -2.899

Q: And the “Temperature, Mean 2 (treated group mean)” value ([1]; Row 1 (time))?
A: 38.58

Q: What about the “Temperature, Mean Diff. (Vehicle - treated)” value ([1]; Row 1 (time)) of the same compound?
A: -0.25

Q: And the “Temperature, Mean 2 (treated group mean)” value ([1]; Row 2 (time))?
A: 38.45

Q: And the “Temperature, Mean Diff. (Vehicle - treated)” value ([1]; Row 2 (time))?
A: 0.275

Q: And the “Temperature, Mean 2 (treated group mean)” value ([1]; Row 3 (time))?
A: 38.68

Q: What about the “Temperature, Mean Diff. (Vehicle - treated)” value ([1]; Row 3 (time)) of the same compound?
A: 0.675

Q: And the “Temperature, Mean 2 (treated group mean)” value ([1]; Row 4 (time))?
A: 38.4

Q: What about the “Temperature, Mean Diff. (Vehicle - treated)” value ([1]; Row 4 (time)) of the same compound?
A: 0.85

Q: What about the “Temperature, Mean 2 (treated group mean)” value ([1]; Row 5 (time)) of the same compound?
A: 38.33

Q: And the “Temperature, Mean Diff. (Vehicle - treated)” value ([1]; Row 5 (time))?
A: 0.6

Q: Which Cl_obs ([4]; individual animals F0201-F0203) does the source give for `N#CC1(c2ccc3c(N)ncnn23)OC(CO)C(O)C1O` (stereo not shown) [compound 441524] here?
A: 12 mL/min/kg and 17.3 mL/min/kg

Q: What about the AUC(0-t) ([4]; Mean) of the same compound?
A: 81.1 µM·h

Q: What about the AUC(0-t) ([4]; individual animals F0201-F0203) of the same compound?
A: 82 µM·h

Q: And the clearance ([4]; Mean)?
A: 14.4 mL/min/kg

Q: What about the clearance ([4]; individual animals F0201-F0203) of the same compound?
A: 13.9 mL/min/kg

Q: What about the Cmax ([4]; Mean) of the same compound?
A: 54.2 µM

Q: What about the Cmax ([4]; individual animals F0201-F0203) of the same compound?
A: 62.4 µM
